Experimental data: PMC8190631, “Molecular Interactions between Two LMP2A PY Motifs of EBV and WW Domains of E3 Ubiquitin Ligase AIP4” (Life, 2021)
Ends that are not written are not given here.

Biological target: T1, WW2 domain of human AIP4 (Homo sapiens, UniProt Q96J02)
T1 construct: The gene (114 bp) encoding the WW2 domain of human AIP4; Ssp DnaB intein (pTWIN1) (N, cleaved yes); made in house
Assay: NMR titration (2D 1H-15N HSQC chemical shift perturbation) of WW2 domain with LMP2A constructs
Assay type: binding

T1 sequence (Q96J02 359-391): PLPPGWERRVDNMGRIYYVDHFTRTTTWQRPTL

Substance PPPPY [PY peptide] has a Kd of 389 µM.
